This is an account of results in patent US9751887B2, “Imidazo[1,2-b]pyridazine derivatives as kinase inhibitors” (Daiichi Sankyo Company, Limited, priority 2012, dated 2017).

In experiment [1] the target is T1, ROS1 (Homo sapiens, UniProt P08922).
T1 construct: purchased Carna Biosciences 08-163
Description: ROS1 kinase inhibitory activity evaluation (mobility shift, EZ Reader II). It counts as biochemical. To be noted: ROS1 25 pg/μL, FL-Peptide 22 substrate, three separate measurements. The method, then: Next, a substrate reaction solution was prepared. […] Then, the reaction stop solution was added thereto at a concentration of 40 μL/well. Substrate phosphorylation intensity was measured using EZ Reader II (Caliper Life Sciences).

The target of experiment [2] is T1, ROS1. Description: ROS1 autophosphorylation inhibitory activity evaluation (ADP-Glo). Particulars: 200 nM inactive ROS1, ATP 1 mM, 25° C. 1.5 hours, ADP generated, four separate measurements. The format is biochemical. The gist of the method: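 ROS1 autophosphorylation ran with 1 mM final ATP in 50 mM HEPES pH 7.5, 10 mM MgCl2, 0.01% Brij-58, 2.5 mM DTT for 1.5 h at 25° C. ADP generated was read by ADP-Glo luminescence. IC50 values were obtained by curve fitting.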

In experiment [3] the test system is HCC78 cells having ROS1 fusion gene. Description: HCC78 cell growth assay (CellTiter-Glo). The format is cell-based. To be noted: Homo sapiens, HCC78, 72 h, 72 hours culture, 2% FBS medium, luminescence, four separate measurements; read-out: growth inhibitory effect on HCC78 cells having ROS1 fusion gene IC50.

pIC50: −log10 of the molar value.

What is called pIC50 is −log10 of the IC50, conventionally taken in molar units.

T1 sequence (P08922 28-2347): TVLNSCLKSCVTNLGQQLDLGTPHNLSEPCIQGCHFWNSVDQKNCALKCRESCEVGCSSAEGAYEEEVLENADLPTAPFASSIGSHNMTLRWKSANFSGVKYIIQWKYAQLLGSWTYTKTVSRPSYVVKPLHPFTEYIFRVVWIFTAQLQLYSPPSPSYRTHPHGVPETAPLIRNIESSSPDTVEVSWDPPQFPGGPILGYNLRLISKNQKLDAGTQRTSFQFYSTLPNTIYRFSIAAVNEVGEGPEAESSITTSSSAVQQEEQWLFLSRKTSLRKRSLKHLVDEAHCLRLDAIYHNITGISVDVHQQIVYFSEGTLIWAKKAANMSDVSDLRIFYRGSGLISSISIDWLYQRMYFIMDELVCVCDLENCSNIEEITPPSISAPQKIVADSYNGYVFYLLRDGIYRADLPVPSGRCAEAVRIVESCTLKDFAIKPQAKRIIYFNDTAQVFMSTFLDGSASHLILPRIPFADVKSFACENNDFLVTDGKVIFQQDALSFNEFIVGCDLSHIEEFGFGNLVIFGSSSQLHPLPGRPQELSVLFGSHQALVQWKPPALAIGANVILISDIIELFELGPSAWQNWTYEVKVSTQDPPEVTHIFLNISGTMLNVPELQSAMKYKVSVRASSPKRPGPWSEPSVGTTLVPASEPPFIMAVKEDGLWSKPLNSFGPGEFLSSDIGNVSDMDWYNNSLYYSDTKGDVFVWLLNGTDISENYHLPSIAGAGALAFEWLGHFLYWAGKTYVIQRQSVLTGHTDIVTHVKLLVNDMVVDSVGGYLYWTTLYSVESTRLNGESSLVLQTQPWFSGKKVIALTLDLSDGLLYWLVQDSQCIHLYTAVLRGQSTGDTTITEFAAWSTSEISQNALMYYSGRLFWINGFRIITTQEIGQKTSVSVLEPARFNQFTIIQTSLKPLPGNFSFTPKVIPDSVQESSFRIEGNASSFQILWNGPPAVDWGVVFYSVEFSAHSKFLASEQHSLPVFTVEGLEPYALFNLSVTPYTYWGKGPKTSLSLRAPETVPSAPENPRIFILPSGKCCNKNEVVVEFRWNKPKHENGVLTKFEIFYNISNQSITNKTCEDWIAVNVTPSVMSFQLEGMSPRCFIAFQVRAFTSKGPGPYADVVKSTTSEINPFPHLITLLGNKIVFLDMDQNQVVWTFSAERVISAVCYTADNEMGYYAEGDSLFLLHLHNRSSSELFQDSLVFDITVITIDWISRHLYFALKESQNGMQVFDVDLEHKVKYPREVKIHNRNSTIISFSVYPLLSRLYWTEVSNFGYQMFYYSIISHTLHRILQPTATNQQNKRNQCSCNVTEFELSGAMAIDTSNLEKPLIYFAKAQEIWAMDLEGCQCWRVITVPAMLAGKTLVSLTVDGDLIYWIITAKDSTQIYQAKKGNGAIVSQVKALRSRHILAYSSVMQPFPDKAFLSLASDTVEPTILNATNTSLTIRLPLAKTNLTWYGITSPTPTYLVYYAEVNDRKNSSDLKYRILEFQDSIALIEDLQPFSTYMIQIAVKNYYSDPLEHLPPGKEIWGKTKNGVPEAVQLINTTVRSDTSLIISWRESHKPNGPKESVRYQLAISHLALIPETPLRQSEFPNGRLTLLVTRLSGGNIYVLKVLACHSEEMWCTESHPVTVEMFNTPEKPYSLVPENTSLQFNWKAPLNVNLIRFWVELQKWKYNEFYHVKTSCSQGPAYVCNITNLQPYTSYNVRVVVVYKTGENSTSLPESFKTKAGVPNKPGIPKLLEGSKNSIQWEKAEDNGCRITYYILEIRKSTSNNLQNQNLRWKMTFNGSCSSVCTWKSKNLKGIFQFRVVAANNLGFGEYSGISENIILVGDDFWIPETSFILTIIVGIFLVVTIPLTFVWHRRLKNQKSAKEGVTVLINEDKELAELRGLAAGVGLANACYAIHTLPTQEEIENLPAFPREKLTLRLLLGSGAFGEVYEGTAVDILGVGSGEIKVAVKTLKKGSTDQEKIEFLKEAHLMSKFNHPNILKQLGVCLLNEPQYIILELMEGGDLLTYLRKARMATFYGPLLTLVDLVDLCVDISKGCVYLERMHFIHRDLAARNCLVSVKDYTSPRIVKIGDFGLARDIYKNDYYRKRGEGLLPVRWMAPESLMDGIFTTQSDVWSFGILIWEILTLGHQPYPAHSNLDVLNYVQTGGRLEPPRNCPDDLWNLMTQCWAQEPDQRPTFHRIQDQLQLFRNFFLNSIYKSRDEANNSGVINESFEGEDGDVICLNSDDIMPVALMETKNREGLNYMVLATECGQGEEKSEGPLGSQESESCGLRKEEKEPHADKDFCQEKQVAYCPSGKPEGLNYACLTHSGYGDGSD

With `CN(Cc1cccc(F)c1)c1ccc2ncc(-c3ccc(OC[C@@H]4CCCN4)cc3)n2n1` [Example 10, N-[(3-Fluorophenyl)methyl]-N-methyl-3-[4-[[(2S)-pyrrolidin-2-yl]methoxy]phenyl]imidazo[1,2-b]pyridazin-6-amine], the pIC50 was 8.00 to 9.00 in experiment [1], 7.00 to 7.70 in experiment [2] and 6.22 to 7.00 in experiment [3].
Take `C[C@@H](Nc1ccc2ncc(-c3ccc(OCC4CNC4)cc3)n2n1)c1cccc(F)c1` [Example 27, 3-[4-(Azetidin-3-ylmethoxy)phenyl]-N-[(1R)-1-(3-fluorophenyl)ethyl]imidazo[1,2-b]pyridazin-6-amine]: the pIC50 in experiment [1] was 8.00 to 9.00; in experiment [2], over 7.70; in experiment [3], 6.22 to 7.00.
In the same order, the values of `CC(Oc1ccc2ncc(-c3ccc(N4C[C@@H](N)CC4=O)cc3)n2n1)c1cc(C#N)n(C)n1` (stereo partly drawn) [Example 116, 5-[1-[3-[4-[(4S)-4-Amino-2-oxopyrrolidin-1-yl]phenyl]imidazo[1,2-b]pyridazin-6-yl]oxyethyl]-2-methylpyrazole-3-carbonitrile] are 7.22 to 8.00, 6.82 to 7.00 and 6.22 to 7.00.
On to `c1ccc(CNc2ccc3ncc(-c4ccc(O[C@@H]5CCNC5)cc4)n3n2)cc1` [Example 3, N-Benzyl-3-[4-[(3R)-pyrrolidin-3-yl]oxyphenyl]imidazo[1,2-b]pyridazin-6-amine], for which the pIC50 in experiment [1] was 8.00 to 9.00; in experiment [2], 7.00 to 7.70; in experiment [3], 7.00 to 7.70.
Turning to `C[C@@H](Nc1ccc2ncc(-c3ccc(O[C@H]4C[C@@H](N)C4)cc3)n2n1)c1cccc(F)c1` [Example 61, 3-[4-(3-cis-Aminocyclobutoxy)phenyl]-N-[(1R)-1-(3-fluorophenyl)ethyl]imidazo[1,2-b]pyridazin-6-amine], the figures for the pIC50 in experiment [1], in experiment [2] and in experiment [3] were 8.00 to 9.00, over 7.70 and 7.00 to 7.70, respectively.
Regarding `OCCN1CCC[C@H]1COc1cccc(-c2cnc3ccc(NCc4ccccc4)nn23)c1` [Example 7, 2-[(2S)-2-[[3-[6-(Benzylamino)imidazo[1,2-b]pyridazin-3-yl]phenoxy]methyl]pyrrolidin-1-yl]ethanol], the pIC50 is 8.00 to 9.00 in experiment [1], 6.82 to 7.00 in experiment [2] and 7.00 to 7.70 in experiment [3].
In the same order, the values of `CNCCOc1ccc(-c2cnc3ccc(N[C@H](C)c4cccc(F)c4)nn23)cn1` [Example 46, N-[(1R)-1-(3-Fluorophenyl)ethyl]-3-[6-[2-(methylamino)ethoxy]-3-pyridyl]imidazo[1,2-b]pyridazin-6-amine] are over 9.00, over 7.70 and over 7.70.
Consider `CC1(N)CN(c2ccc(-c3cnc4ccc(OCc5cccc(F)c5)nn34)cc2)C(=O)C12CC2` (stereo not drawn) [Example 77, 7-Amino-5-[4-[6-[(3-fluorophenyl)methoxy]imidazo[1,2-b]pyridazin-3-yl]phenyl]-7-methyl-5-azaspiro[2.4]heptan-4-one], for which the pIC50 in experiment [1] was over 9.00; in experiment [2], 7.00 to 7.70; in experiment [3] it was 7.00 to 7.70.
Consider `CN(Cc1cccc(F)c1)c1ccc2ncc(-c3ccc(N4CC(C)(N)CC4=O)cc3)n2n1` (single isomer, unassigned) [Example 87, 4-Amino-1-[4-[6-[(3-fluorophenyl)methyl-methylamino]imidazo[1,2-b]pyridazin-3-yl]phenyl]-4-methylpyrrolidin-2-one], for which the pIC50 in experiment [1] was 8.00 to 9.00; in experiment [2], 7.00 to 7.70; in experiment [3] it was 7.00 to 7.70.
Regarding `C[C@@H](Oc1ccc2ncc(-c3ccc(N4C[C@@H](N(C)C)CC4=O)cc3)n2n1)c1cccc(F)c1` [Example 135, (4S)-4-(Dimethylamino)-1-[4-[6-[(1R)-1-(3-fluorophenyl)ethoxy]imidazo[1,2-b]pyridazin-3-yl]phenyl]pyrrolidin-2-one], the pIC50 in experiment [1] is 8.00 to 9.00; in experiment [2], 7.00 to 7.70; in experiment [3], 6.22 to 7.00.
The like results for `C[C@@H](Oc1ccc2ncc(-c3ccc(N4C[C@H](N)CC4=O)cc3)n2n1)c1cccc(F)c1` [Example 78, (4R)-4-Amino-1-[4-[6-[(1R)-1-(3-fluorophenyl)ethoxy]imidazo[1,2-b]pyridazin-3-yl]phenyl]pyrrolidin-2-one] were, in that order, 8.00 to 9.00, over 7.70 and 7.00 to 7.70.
The like results for `NC1CCN(c2ccc(-c3cnc4ccc(OCc5cccc(F)c5)nn34)cc2)C1=O` (stereo not drawn) [Example 75, 3-Amino-1-[4-[6-[(3-fluorophenyl)methoxy]imidazo[1,2-b]pyridazin-3-yl]phenyl]pyrrolidin-2-one] were, in that order, 8.00 to 9.00, 7.00 to 7.70 and 6.22 to 7.00.
For `C[C@@H](Nc1ccc2ncc(-c3ccc(N4C[C@@H](N)CC4=O)cc3)n2n1)c1ccccc1` [Example 88, (4S)-4-Amino-1-[4-[6-[[(1R)-1-phenylethyl]amino]imidazo[1,2-b]pyridazin-3-yl]phenyl]pyrrolidin-2-one], the pIC50 in experiment [1] was over 9.00; in experiment [2], over 7.70; in experiment [3] it was over 7.70.
For the compound `C[C@@H](Nc1ccc2ncc(-c3ccc(OC[C@@H](N)CO)cc3)n2n1)c1cccc(F)c1` [Example 56, (2S)-2-Amino-3-[4-[6-[[(1R)-1-(3-fluorophenyl)ethyl]amino]imidazo[1,2-b]pyridazin-3-yl]phenoxy]propan-1-ol], the pIC50 in experiment [1] is over 9.00; in experiment [2] it was over 7.70; in experiment [3] it was over 7.70.
With `C[C@@H](Nc1ccc2ncc(-c3ccc(SC[C@@H]4CCCN4)cc3)n2n1)c1ccccc1` [Example 20, N-[(1R)-1-Phenylethyl]-3-[4-[[(2S)-pyrrolidin-2-yl]methylsulfanyl]phenyl]imidazo[1,2-b]pyridazin-6-amine], the pIC50 is 8.00 to 9.00 in experiment [1], 7.00 to 7.70 in experiment [2] and 6.22 to 7.00 in experiment [3].
The like results for `c1ccc(CNc2ccc3ncc(-c4cccc(O[C@@H]5CCNC5)c4)n3n2)cc1` [Example 4, N-Benzyl-3-[3-[(3R)-pyrrolidin-3-yl]oxyphenyl]imidazo[1,2-b]pyridazin-6-amine] were, in that order, 8.00 to 9.00, 6.82 to 7.00 and 6.22 to 7.00.
`C[C@@H](Nc1ccc2ncc(-c3ccc(OC[C@@H](N)[C@@H](C)O)cc3)n2n1)c1cccc(F)c1` [Example 54, (2R,3R)-3-Amino-4-[4-[6-[[(1R)-1-(3-fluorophenyl)ethyl]amino]imidazo[1,2-b]pyridazin-3-yl]phenoxy]butan-2-ol]: the pIC50 in experiment [1] is over 9.00; in experiment [2], over 7.70; in experiment [3], over 7.70.
As for `C[C@H](N)COc1ccc(-c2cnc3ccc(N[C@H](C)c4cccc(F)c4)nn23)cn1` [Example 63, 3-[6-[(2S)-2-Aminopropoxy]-3-pyridyl]-N-[(1R)-1-(3-fluorophenyl)ethyl]imidazo[1,2-b]pyridazin-6-amine], the pIC50 in experiment [1] was over 9.00; in experiment [2], over 7.70; in experiment [3], over 7.70.
For `C[C@@H](N)COc1cccc(-c2cnc3ccc(N[C@H](C)c4cccc(F)c4)nn23)c1` [Example 60, 3-[3-[(2R)-2-Aminopropoxy]phenyl]-N-[(1R)-1-(3-fluorophenyl)ethyl]imidazo[1,2-b]pyridazin-6-amine], the pIC50 is 8.00 to 9.00 in experiment [1], over 7.70 in experiment [2] and 7.00 to 7.70 in experiment [3].
In the same order, the values of `c1ccc(CNc2ccc3ncc(-c4ccc(OC[C@@H]5CCNC5)cc4)n3n2)cc1` [Example 5, N-Benzyl-3-[4-[[(3R)-pyrrolidin-3-yl]methoxy]phenyl]imidazo[1,2-b]pyridazin-6-amine] are 8.00 to 9.00, 7.00 to 7.70 and 7.00 to 7.70.
Regarding `Fc1cccc(COc2ccc3ncc(-c4ccc(OC[C@@H]5CCCN5)cc4)n3n2)c1` [Example 12, 6-[(3-Fluorophenyl)methoxy]-3-[4-[[(2S)-pyrrolidin-2-yl]methoxy]phenyl]imidazo[1,2-b]pyridazine], the figures for the pIC50 in experiment [1], in experiment [2] and in experiment [3] were 8.00 to 9.00, 7.00 to 7.70 and 6.22 to 7.00, respectively.
As for `CN(Cc1cncc(F)c1Cl)c1ccc2ncc(-c3ccc(N4C[C@@H](N)CC4=O)cc3)n2n1` [Example 126, (4S)-4-Amino-1-[4-[6-[(4-chloro-5-fluoro-3-pyridyl)methyl-methylamino]imidazo[1,2-b]pyridazin-3-yl]phenyl]pyrrolidin-2-one], the pIC50 in experiment [1] was 8.00 to 9.00; in experiment [2], 7.00 to 7.70; in experiment [3], 7.00 to 7.70.
With `CN(Cc1cncc(Cl)c1)c1ccc2ncc(-c3ccc(N4C[C@@H](N)CC4=O)cc3)n2n1` [Example 122, (4S)-4-Amino-1-[4-[6-[(5-chloro-3-pyridyl)methyl-methylamino]imidazo[1,2-b]pyridazin-3-yl]phenyl]pyrrolidin-2-one], the pIC50 in experiment [1] was 8.00 to 9.00; in experiment [2], 7.00 to 7.70; in experiment [3], 7.00 to 7.70.
Regarding `C[C@@H](Nc1ccc2ncc(-c3cccc(OC[C@@H]4CCCN4)c3)n2n1)c1cccc(F)c1` [Example 50, N-[(1R)-1-(3-Fluorophenyl)ethyl]-3-[3-[[(2S)-pyrrolidin-2-yl]methoxy]phenyl]imidazo[1,2-b]pyridazin-6-amine], the pIC50 in experiment [1] is over 9.00; in experiment [2], over 7.70; in experiment [3], 7.00 to 7.70.
For the compound `C[C@@H](Nc1ccc2ncc(-c3ccc(OCCCN(C)C)cc3)n2n1)c1cccc(F)c1` [Example 70, 3-[4-[3-(Dimethylamino)propoxy]phenyl]-N-[(1R)-1-(3-fluorophenyl)ethyl]imidazo[1,2-b]pyridazin-6-amine], the negative logarithm of the IC50 (pIC50) in experiment [1] was over 9.00; in experiment [2], over 7.70; in experiment [3] it was 7.00 to 7.70.
